Measured values as given in patent publication US20230293405A1, “Compositions Comprising UV-Filters and One or More (Bio)-Alkanediols” (Symrise AG, priority 2020, published 2023).

How the values were obtained:
[1] = Solubility of alkanediols in water (visual observation); conditions: assessed at ambient temperature after 24 h storage at 5° C.
[2] = Sensory properties of oil component blended with alkanediol, assessed by untrained panelists on the backside of the hand; assay type: in vivo; conditions: scale 1 (low) to 5 (high absorption)
Source text: For evaluating the sensory behavior, oil components specified in the following Table 13 were blended with 1,2-heptanediol or 2,3-heptanediol or a mixture of 1,2-heptanediol and 2,3-heptanediol or 1,2-octanediol or 2,3-octanediol or a mixture of 1,2-octanediol and 2,3-octanediol (formulation) and assessed by untrained panelists in comparison to the oil component without addition of the specified alkanediols (placebo).
Test procedure: • Hands were pre-washed with liquid soap by following a defined procedure; • 30 μl of corresponding sample was applied on the backside of each hand (randomized); • After 30 s the spreading behavior of the respective formulation on skin was evaluated versus the respective oil component without 1,2-heptanediol on a scale from 1 to 5 (1=low spreading; 5=high spreading); • The samples were distributed with the fingertips of middle and forefinger with 2×5 cycles; • After 2 minutes, the fatty/greasy skin feeling was evaluated on a scale from 1 to 5 (1=low fatty/greasy skin feeling; 5=high fatty/greasy skin feeling); • Furthermore, the applicants were asked to assess the absorption, i.e. the impression of amount of remaining residue on the skin on a scale from 1 to 5 (1=low absorption; 5=high absorption).

[3] = in Caprylic Capric Triglyceride (neutral oil)
[4] = in Helianthus Annuus (Sunflower) Seed Oil

| SMILES | Maximum solubility in water (% by weight) [1] [% by weight] | Absorption/remaining residue with ([2]; in Argan Oil) | Absorption/remaining residue with ([2]; in Avocado Oil) | Absorption/remaining residue with ([2]; in Cacao butter) | Absorption/remaining residue with ([2]; in Castor Oil) | Absorption/remaining residue with ([2]; in Coconut Oil) | Absorption/remaining residue with ([2]; in Grapeseed Oil) | Absorption/remaining residue with [2, 4] | Absorption/remaining residue with ([2]; in Olive Oil) | also measured |
| --- | --- | --- | --- | --- | --- | --- | --- | --- | --- | --- |
| CCCCCCC(O)CO (stereo not shown) [1,2-octanediol] | – | 2.6 | 2.6 | 3 | – | 3 | 1.6 | 2 | 2.6 | – |
| CCCCCCC(O)CO (stereo not shown) [Hydrolite ® 8, Caprylyl Glycol] | 0.5 | – | – | – | – | – | – | – | – | – |
| CCCCCCCC(O)CO (stereo not shown) [1,2-nonanediol] | 0.1 | – | – | – | – | – | – | – | – | – |

Further lines, with some results ahead:

| Maximum solubility in water (% by weight) [1] [% by weight] | Absorption/remaining residue with ([2]; in Argan Oil) | Absorption/remaining residue with ([2]; in Avocado Oil) | Absorption/remaining residue with ([2]; in Cacao butter) | Absorption/remaining residue with ([2]; in Castor Oil) | Absorption/remaining residue with ([2]; in Coconut Oil) | Absorption/remaining residue with ([2]; in Grapeseed Oil) | Absorption/remaining residue with [2, 4] | Absorption/remaining residue with ([2]; in Olive Oil) | SMILES | also measured |
| --- | --- | --- | --- | --- | --- | --- | --- | --- | --- | --- |
| 0.3 | – | – | – | – | – | – | – | – | CCCCCCC(O)C(C)O (stereo not shown) [2,3-nonanediol] | – |
| 2.5 | 2.8 | 2.6 | 3.6 | 4 | 2 | 2.8 | 2 | 2.4 | CCCCCC(O)CO (stereo not shown) [1,2-heptanediol] | Absorption/remaining residue with ([2]; in Butyrospermum Parkii (Shea) Butter): 2.7; Absorption/remaining residue with [2, 3]: 2.7; Absorption/remaining residue with ([2]; in Cetearyl Nonanoate (SymMollient S)): 2; Absorption/remaining residue with ([2]; in Chlorella oil (biotech)): 3; Absorption/remaining residue with ([2]; in Ethylhexyl Methoxycinnamate (Neo Heliopan AV)): 3; Absorption/remaining residue with ([2]; in Ethylhexyl Salicylate (Neo Heliopan OS)): 2.2; Absorption/remaining residue with ([2]; in Hexyldecanol (Eutanol G)): 2.7; Absorption/remaining residue with ([2]; in Homosalate (Neo Heliopan HMS)): 2.5; Absorption/remaining residue with ([2]; in Isoamyl p-Methoxycinnamate (Neo Heliopan E 1000)): 2.5; Absorption/remaining residue with ([2]; in Microalgae oil): 2.5; Absorption/remaining residue with ([2]; in Octocrylene (Neo Heliopan 303)): 2.7; Absorption/remaining residue with ([2]; in Propanediol Dicaprylate/Dicaprate (Symollient PDCC)): 2.4; Absorption/remaining residue with ([2]; in Prunus Amygdalus Dulcis (Sweet Almond) Oil): 2.2; Absorption/remaining residue with ([2]; in Simmondsia Chinensis (Jojoba) Seed Oil): 2.5 |
| 3.6 | 2.4 | 2.4 | 3.2 | 3.8 | 2.4 | 2.2 | 2.6 | 2 | CCCCC(O)C(C)O (stereo not shown) [2,3-heptanediol] | Absorption/remaining residue with [2, 3]: 3 |
| 1.5 | 2.2 | 2.4 | 2.8 | 3 | 2.6 | 2.4 | 3.4 | 2.6 | CCCCCC(O)C(C)O (stereo not shown) [2,3-octanediol] | – |
